≈ marks a conversion by molar mass, not a printed value. Calls of active or inactive are those of the source. No cut-off for these calls is given here.

Series [1] has as its target T1, Vasopressin V1a receptor (Homo sapiens, UniProt P37288). The series is described as follows: Antagonist activity at human V1A receptor expressed in HEK cells assessed as inhibition of AVP-induced intracellular calcium flux incubated for 45 mins by Indo1-AM dye based fluorescence assay relative to AVP. Type of series: functional, cell-based.
Series [2] concerns the target T2, Vasopressin V2 receptor (Homo sapiens, UniProt P30518). The series is described as follows: Displacement of DY647 from SNAP-tagged V2 receptor (unknown origin) expressed in HEK293 cells by TR-FRET assay. Type of series: cell-based. On the technique in general: Time-resolved FRET reads energy transfer from a long-lived donor to a nearby acceptor.
Series [3] addresses T3, Oxytocin receptor (Homo sapiens, UniProt P30559).
T3 sequence (P30559 whole entry): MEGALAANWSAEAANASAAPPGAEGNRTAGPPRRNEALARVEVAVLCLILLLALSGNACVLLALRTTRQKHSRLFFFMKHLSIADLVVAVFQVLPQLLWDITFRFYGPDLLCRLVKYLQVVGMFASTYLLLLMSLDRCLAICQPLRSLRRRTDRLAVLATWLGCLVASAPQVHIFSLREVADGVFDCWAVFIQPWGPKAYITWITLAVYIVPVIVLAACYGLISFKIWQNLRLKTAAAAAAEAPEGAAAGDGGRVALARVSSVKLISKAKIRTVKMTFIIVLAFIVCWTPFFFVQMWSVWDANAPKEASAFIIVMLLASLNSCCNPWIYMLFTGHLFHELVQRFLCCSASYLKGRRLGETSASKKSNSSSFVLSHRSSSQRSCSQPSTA
The series is described as follows: Displacement of DY647 from SNAP-tagged OTR receptor (unknown origin) expressed in HEK293 cells by TR-FRET assay. Type of series: cell-based.

In series [4] the target is T3, Oxytocin receptor. The series is described as follows: Agonist activity at human OTR expressed in HEK cells assessed as increase in intracellular calcium flux incubated for 45 mins by Indo1-AM dye based fluorescence assay. Type of series: functional, cell-based.
Series [5] concerns Mus musculus. The series is described as follows: Improvement in social interaction in Oprm1-/- mouse model of autism spectrum disorders assessed as restoration of number of nose contacts at 10 mg/kg, ip pre-treated before open-field test for 10 mins. Type of series: functional, organism-based.
In series [6] the test system is Mus musculus. The series is described as follows: Improvement in social interaction in Oprm1-/- mouse model of autism spectrum disorders assessed as restoration of time spent in nose contacts at 10 mg/kg, ip pre-treated before open-field test for 10 mins. Type of series: functional, organism-based.
Series [7] relates to Mus musculus. The series is described as follows: Improvement in social interaction in Oprm1-/- mouse model of autism spectrum disorders assessed as suppression of grooming episodes occurring after social contact at 10 mg/kg, ip pre-treated before open-field test for 10 mins. Type of series: functional, organism-based.
The test system of series [8] is Mus musculus. The series is described as follows: Effect on social interaction in Oprm1+/+ mouse model of autism spectrum disorders assessed as time spent in nose contacts at 10 mg/kg, ip pre-treated before open-field test for 10 mins. The conditions noted are these: in vivo. Type of series: ADME, organism-based.
Series [9] has as its system Mus musculus. The series is described as follows: Effect on social interaction in Oprm1+/+ mouse model of autism spectrum disorders assessed as mean duration of nose contacts at 10 mg/kg, ip pre-treated before open-field test for 10 mins. Type of series: ADME, organism-based. The conditions noted are these: in vivo.
Series [10] concerns Mus musculus. The series is described as follows: Effect on social interaction in Oprm1+/+ mouse model of autism spectrum disorders assessed as increase in number of following episodes at 10 mg/kg, ip pre-treated before open-field test for 10 mins. Type of series: ADME, organism-based. The settings on record: in vivo.
Series [11] relates to Mus musculus. The series is described as follows: Improvement in social interaction in Oprm1-/- mouse model of autism spectrum disorders assessed as restoration of number of nose contacts at 20 mg/kg, ip pre-treated before open-field test for 10 mins. Type of series: functional, organism-based.
For series [12], the system named is Mus musculus. The series is described as follows: Improvement in social interaction in Oprm1-/- mouse model of autism spectrum disorders assessed as restoration of mean duration of nose contacts at 20 mg/kg, ip pre-treated before open-field test for 10 mins. Type of series: functional, organism-based.
Series [13] has as its system Mus musculus. The series is described as follows: Improvement in social interaction in Oprm1-/- mouse model of autism spectrum disorders assessed as restoration of number of following episodes at 20 mg/kg, ip pre-treated before open-field test for 10 mins. Type of series: functional, organism-based.
In series [14] the test system is Mus musculus. The series is described as follows: Effect on social interaction in Oprm1+/+ mouse model of autism spectrum disorders assessed as grooming episodes occurring after social contact at 10 mg/kg, ip pre-treated before open-field test for 10 mins. The settings on record: in vivo. Type of series: ADME, organism-based.
Series [15] is described as follows: Thermodynamic solubility in pH 7.4 buffer. The conditions noted are these: read-out: Therm_solubility. Type of series: physicochemical.
Series [16] concerns the target T3, Oxytocin receptor. The series is described as follows: Agonist activity at human OTR receptor expressed in HEK293FT cells assessed as stimulation of calcium release by Aequorin based assay. Type of series: functional, cell-based.
Series [17] has as its target T4, Oxytocin receptor (Homo sapiens) (UniProt P30559).
T4 sequence (whole entry): T3 sequence (P30559 whole entry)
The series is described as follows: Agonist activity at human OTR receptor expressed in HEK293FT cells assessed as stimulation of calcium release by Aequorin based assay relative to OT. Type of series: functional, cell-based.

Series [18] has as its target T5, Oxytocin receptor (Mus musculus) (UniProt P97926).
T5 sequence (whole entry): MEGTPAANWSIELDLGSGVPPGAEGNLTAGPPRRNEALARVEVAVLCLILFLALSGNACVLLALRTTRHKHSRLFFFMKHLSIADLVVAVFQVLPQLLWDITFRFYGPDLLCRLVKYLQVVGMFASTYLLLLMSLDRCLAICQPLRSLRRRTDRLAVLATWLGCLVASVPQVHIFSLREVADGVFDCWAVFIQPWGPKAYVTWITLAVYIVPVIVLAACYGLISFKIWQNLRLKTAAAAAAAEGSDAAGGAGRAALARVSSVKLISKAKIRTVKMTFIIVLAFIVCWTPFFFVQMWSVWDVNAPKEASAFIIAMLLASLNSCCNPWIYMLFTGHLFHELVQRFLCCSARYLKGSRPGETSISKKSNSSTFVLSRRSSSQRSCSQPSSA
The series is described as follows: Agonist activity at mouse OTR receptor expressed in HEK293FT cells assessed as stimulation of calcium release by Aequorin based assay relative to OT. Type of series: functional, cell-based.

The target in series [19] is T2, Vasopressin V2 receptor. The series is described as follows: Agonist activity at human V2 receptor expressed in HEK293FT cells assessed as stimulation of calcium release by Aequorin based assay relative to AVP. Type of series: functional, cell-based.
Series [20] addresses T2, Vasopressin V2 receptor. The series is described as follows: Agonist activity at human V2 receptor expressed in HEK293FT cells incubated for 30 mins by beta-arrestin recruitment assay. Type of series: functional, cell-based.
Series [21] concerns the target T4, Oxytocin receptor (Homo sapiens). The series is described as follows: Agonist activity at human OTR receptor expressed in HEK293FT cells incubated for 30 mins by beta-arrestin recruitment assay relative to OT. Type of series: functional, cell-based. For orientation: Activated receptors often draw arrestin, which recruitment assays turn into a signal.
Series [22] has as its target T1, Vasopressin V1a receptor.
Description: Agonist activity at human V1a receptor expressed in HEK293FT cells assessed as stimulation of calcium release by Aequorin based assay
For another series, the target named is T6, Vasopressin V1b receptor (Homo sapiens, UniProt P47901).
T6 sequence (P47901 whole entry): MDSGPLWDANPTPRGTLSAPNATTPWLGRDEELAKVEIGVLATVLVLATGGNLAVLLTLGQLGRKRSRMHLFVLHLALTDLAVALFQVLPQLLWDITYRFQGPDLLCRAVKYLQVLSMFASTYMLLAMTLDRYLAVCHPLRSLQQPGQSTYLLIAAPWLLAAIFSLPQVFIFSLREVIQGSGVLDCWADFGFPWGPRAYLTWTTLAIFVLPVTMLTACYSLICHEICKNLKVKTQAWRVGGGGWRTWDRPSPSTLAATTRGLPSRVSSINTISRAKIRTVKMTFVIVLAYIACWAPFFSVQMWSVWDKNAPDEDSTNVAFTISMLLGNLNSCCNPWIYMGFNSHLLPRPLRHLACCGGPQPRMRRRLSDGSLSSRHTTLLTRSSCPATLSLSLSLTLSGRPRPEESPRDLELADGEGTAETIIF

T2 sequence (P30518 whole entry): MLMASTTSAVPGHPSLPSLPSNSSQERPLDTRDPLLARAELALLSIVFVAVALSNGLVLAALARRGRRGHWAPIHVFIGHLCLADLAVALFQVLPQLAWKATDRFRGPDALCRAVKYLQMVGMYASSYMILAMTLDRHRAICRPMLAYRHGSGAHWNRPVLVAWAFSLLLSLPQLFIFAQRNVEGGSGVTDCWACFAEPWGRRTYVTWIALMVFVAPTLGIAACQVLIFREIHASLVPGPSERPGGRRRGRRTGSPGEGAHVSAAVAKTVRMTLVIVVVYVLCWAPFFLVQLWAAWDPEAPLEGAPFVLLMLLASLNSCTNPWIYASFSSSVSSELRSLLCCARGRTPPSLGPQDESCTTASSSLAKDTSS
T1 sequence (P37288 whole entry): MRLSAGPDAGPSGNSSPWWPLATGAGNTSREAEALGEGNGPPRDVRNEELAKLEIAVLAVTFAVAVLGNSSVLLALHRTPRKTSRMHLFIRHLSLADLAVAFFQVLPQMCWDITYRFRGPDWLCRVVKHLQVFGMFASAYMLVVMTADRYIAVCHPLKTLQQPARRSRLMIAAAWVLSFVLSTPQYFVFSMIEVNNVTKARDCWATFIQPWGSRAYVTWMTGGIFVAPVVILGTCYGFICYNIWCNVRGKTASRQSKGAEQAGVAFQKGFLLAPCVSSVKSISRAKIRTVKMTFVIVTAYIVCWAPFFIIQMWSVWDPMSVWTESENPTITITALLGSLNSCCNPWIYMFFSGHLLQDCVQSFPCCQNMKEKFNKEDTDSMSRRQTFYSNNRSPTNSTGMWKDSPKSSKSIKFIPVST
Description for Vasopressin V1b receptor: Agonist activity at human V1b receptor expressed in HEK293FT cells assessed as stimulation of calcium release by Aequorin based assay

Usually IC50 stands for the concentration that inhibits the measured activity by half. For orientation: Ki means the dissociation constant of the complex between target and ligand, obtained from inhibition or displacement. A lower Ki goes with a stronger hold on the target. As a reminder, the EC50 is the concentration giving half of the maximal effect. In general, Emax refers to the size of the effect at its maximum, as opposed to the concentration needed. For the molecule `Cc1cc(C(=O)N2Cc3cnn(C)c3Nc3ccccc32)ccc1CNC(=O)N1CCC[C@H]1C(=S)N(C)C`, the IC50 on Vasopressin V1a receptor [1] turned out to be 100 nM. Besides, the figures for the inhibitory constant (Ki) on Vasopressin V2 receptor [2] and on Oxytocin receptor [3] were 1670 nM and 226 nM, respectively. Further, the EC50 is 55 nM on Oxytocin receptor [4]; 25 nM at Oxytocin receptor [16]; 660 nM at Vasopressin V2 receptor [20]; “Not Active” on Vasopressin V1a receptor [22]; “Not Active” on Vasopressin V1b receptor. Also, the result with Mus musculus [5], in the series with Mus musculus [6] and in the series with Mus musculus [7] was Active. Also, the Activity result in the series with Mus musculus [8] is “Non-Toxic”; with Mus musculus [9], “Non-Toxic”; in the series with Mus musculus [10] it was “Toxic”; in the series on Mus musculus [14], “Toxic”. Moreover, the result with Mus musculus [11], in the series with Mus musculus [12] and with Mus musculus [13] was inactive. Further, the solubility thermodynamic in series [15] is 680 µM (≈ 362 µg/mL). The Emax in series [17] came to 96%; in [18], 96%; on Vasopressin V2 receptor [19], 101%; in [21], 77%.
